Experimental data taken from patent publication US10294202B2, “Pyrrolidinones as herbicides” (FMC Corporation, priority 2013, dated 2019).

Columns and labels:
[1] = system: crabgrass, large; assay: Test C pre-/postemergence herbicide test; format: in vivo, Digitaria sanguinalis
Text: (§1) Seeds of plant species selected from blackgrass (Alopecurus myosuroides), ryegrass, Italian (Italian ryegrass, Lolium multiflorum), wheat (winter wheat, Triticum aestivum), galium (catchweed bedstraw, Galium aparine), corn (Zea mays), crabgrass, large (large crabgrass, Digitaria sanguinalis), foxtail, giant (giant foxtail, Setaria faberii), johnsongrass (Sorghum halepense), lambsquarters (Chenopodium album), morningglory (Ipomoea coccinea), nutsedge, yellow (yellow nutsedge, Cyperus esculentus), pigweed (Amaranthus retroflexus), ragweed (common ragweed, Ambrosia elatior), soybean (Glycine max), barnyardgrass (Echinochloa crus-galli), oilseed rape (Brassica napus), waterhemp (common waterhemp, Amaranthus rudis), kochia (Kochia scoparia), oat, wild (wild oat, Avena fatua), surinam grass (Brachiaria decumbens), foxtail, green (green foxtail, Setaria viridis), goosegrass (Eleusine indica), bromegrass, downy (downy bromegrass, Bromus tectorum), nightshade (eastern black nightshade, Solanum ptycanthum), cocklebur (common cocklebur, Xanthium strumarium), cupgrass, woolly (woolly cupgrass, Eriochloa villosa), bermudagrass (Cynodon dactylon), sunflower, (common oilseed sunflower, Helianthus annuus), Russian thistle (Salsola kali) and velvetleaf (Abutilon theophrasti) were planted into a blend of loam soil and sand and treated preemergence with test chemicals formulated in a non-phytotoxic solvent mixture which included a surfactant. At the same time, plants selected from these crop and weed species and also barley (winter barley, Hordeum vulgare), […]), chickweed (common chickweed, Stellaria media), deadnettle (henbit deadnettle, Lamium amplexicaule), and canarygrass (littleseed canarygrass, Phalaris minor) were planted in pots containing Redi-Earth® planting medium (Scotts Company, 14111 Scottslawn Road, Marysville, Ohio 43041) comprising spaghnum peat moss, vermiculite, wetting agent and starter nutrients and treated with postemergence applications of test chemicals formulated in the same manner. Plants ranged in height from 2 to 18 cm (1- to 4-leaf stage) for postemergence treatments. Treated plants and controls were maintained in a greenhouse for 13 to 15 days, after which time all species were compared to controls and visually evaluated. Plant response ratings, summarized in Table C, are based on a scale of 0 to 100 where 0 is no effect and 100 is complete control. A dash (-) response means no test result.

[2] = system: ducksalad; assay: Test B flooded paddy test; format: in vivo, Heteranthera limosa; conditions: 250 g ai/ha, Flood; scale of 0 to 100 where 0 is no effect and 100 is complete control
How it was run: (§2)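 First, plants reach the 2-leaf stage; next, pots are flooded to 3 cm and compound is delivered into the water; finally, after 13 to 15 greenhouse days at constant depth, injury is graded visually from 0 to 100 against controls.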

[3] = system: pigweed; assay: Test C pre-/postemergence herbicide test; format: in vivo, Amaranthus retroflexus
How it was run: (§3)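 Two application timings ran in parallel with identically formulated test chemicals (non-phytotoxic solvent, surfactant included): spray on seeded loam–sand soil, and spray on emerged plants 2 to 18 cm high. Evaluation at 13 to 15 days compared each species with controls, rated from 0 up to 100.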

[4] = system: nutsedge, yellow; assay: Test C pre-/postemergence herbicide test; format: in vivo, Cyperus esculentus
How it was run: as §3

[5] = system: blackgrass; assay: Test C pre-/postemergence herbicide test; format: in vivo, Alopecurus myosuroides
How it was run: as §3

[6] = system: wheat; assay: Test A pre-/postemergence herbicide test; format: in vivo, Triticum aestivum
How it was run: (§4)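 Directed soil spray to seeded pots (preemergence) or spray onto one- to two-leaf seedlings 2–10 cm tall (postemergence); loam/sand substrate throughout. Evaluated visually after about 10 days against untreated plants, 0 = no effect, 100 = complete control.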

[7] = system: barnyardgrass; assay: Test B flooded paddy test; format: in vivo, Echinochloa crus-galli; conditions: 250 g ai/ha, Flood; scale of 0 to 100 where 0 is no effect and 100 is complete control
How it was run: as §2

[8] = system: lambsquarters; assay: Test C pre-/postemergence herbicide test; format: in vivo, Chenopodium album
Text: as §1

[9] = system: giant foxtail; assay: Test A pre-/postemergence herbicide test; format: in vivo, Setaria faberii
How it was run: as §4

[10] = Postemergence, 31 g ai/ha, scale 0 (no effect) to 100 (complete control)
[11] = Postemergence, 62 g ai/ha, scale 0 to 100 (0 no effect, 100 complete control)
[12] = Postemergence, 125 g ai/ha, scale 0 to 100 (0 no effect, 100 complete control)
[13] = Postemergence, 250 g ai/ha, scale 0 to 100 (0 no effect, 100 complete control)
[14] = Preemergence, 31 g ai/ha, scale 0 to 100, 0 is no effect and 100 is complete control
[15] = Preemergence, 62 g ai/ha, scale 0 to 100
[16] = Preemergence, 125 g ai/ha, scale 0 to 100 (0 no effect, 100 complete control)
[17] = Postemergence, 125 g ai/ha, 0 to 100 scale, 0 no effect, 100 complete control
[18] = Postemergence, 500 g ai/ha, 0 to 100 scale (0 no effect, 100 complete control)
[19] = Preemergence, 125 g ai/ha, visual rating on 0 to 100 scale (0 no effect, 100 complete control)
[20] = preemergence, 500 g ai/ha, 0 to 100 scale

With O=C1NCC(c2ccccc2)C1C(=O)Nc1ccccc1F (racemic) [Compound 81] the “Plant response rating, Crabgrass, Large” value [1, 10] was 0, the “Plant response rating, Crabgrass, Large” value [1, 11] was 0 and the “Plant response rating, Crabgrass, Large” value [1, 12] was 3. The “Plant response rating, Crabgrass, Large” value [1, 13] was 7, the “Crabgrass, Large plant response rating” value [1, 14] was 50 and the “Plant response rating, Crabgrass, Large” value [1, 15] was 75. The “Plant response rating, Crabgrass, Large” value [1, 16] was 90, the “Plant response rating (scale of 0 to 100), Crabgrass, Large” value ([1]; Preemergence, 250 g ai/ha) was 95 and the “Plant response rating, Ducksalad” value [2] was 70. The “Plant response rating, Pigweed” value [3, 10] was 0, the “Plant response rating, Pigweed” value [3, 11] was 0 and the “Plant response rating, Pigweed” value [3, 12] was 0. The “Plant response rating, Pigweed” value [3, 13] was 0, the “Pigweed plant response rating” value [3, 14] was 0 and the “Plant response rating, Pigweed” value [3, 15] was 0. The “Plant response rating, Pigweed” value [3, 16] was 0, the “Plant response rating (scale of 0 to 100), Pigweed” value ([3]; Preemergence, 250 g ai/ha) was 0 and the “Plant response rating, Nutsedge, Yellow” value [4, 10] was 0. For the same compound, the “Plant response rating, Nutsedge, Yellow” value [4, 11] was 0, the “Plant response rating, Nutsedge, Yellow” value [4, 12] was 0 and the “Plant response rating, Nutsedge, Yellow” value [4, 13] was 0. The “Nutsedge, Yellow plant response rating” value [4, 14] was 0, the “Plant response rating, Nutsedge, Yellow” value [4, 15] was 0 and the “Plant response rating, Nutsedge, Yellow” value [4, 16] was 0. The “Plant response rating (scale of 0 to 100), Nutsedge, Yellow” value ([4]; Preemergence, 250 g ai/ha) was 0, the “Plant response rating, Blackgrass” value [5, 10] was 0 and the “Plant response rating, Blackgrass” value [5, 11] was 0. For the same compound, the “Plant response rating, Blackgrass” value [5, 12] was 0, the “Plant response rating, Blackgrass” value [5, 13] was 0 and the “Blackgrass plant response rating” value [5, 14] was 0. For the same compound, the “Plant response rating, Blackgrass” value [5, 15] was 0, the “Plant response rating, Blackgrass” value [5, 16] was 0 and the “Plant response rating (scale of 0 to 100), Blackgrass” value ([5]; Preemergence, 250 g ai/ha) was 0. For the same compound, the “Plant response rating, Wheat” value [6, 17] was 0, the “Plant response rating, Wheat” value [6, 18] was 0 and the “Wheat plant response rating” value [6, 19] was 0. The “Plant response rating, Wheat” value [6, 20] was 20, the “Plant response rating, Barnyardgrass” value [7] was 20 and the “Plant response rating, Lambsquarters” value [8, 10] was 0. The “Plant response rating, Lambsquarters” value [8, 11] was 0, the “Plant response rating, Lambsquarters” value [8, 12] was 0 and the “Plant response rating, Lambsquarters” value [8, 13] was 3. For the same compound, the “Lambsquarters plant response rating” value [8, 14] was 0, the “Plant response rating, Lambsquarters” value [8, 15] was 0 and the “Plant response rating, Lambsquarters” value [8, 16] was 0. The “Plant response rating (scale of 0 to 100), Lambsquarters” value ([8]; Preemergence, 250 g ai/ha) was 27, the “Plant response rating, Foxtail, Giant” value [9, 17] was 20 and the “Plant response rating, Foxtail, Giant” value [9, 18] was 70. For the same compound, the “Foxtail, Giant plant response rating” value [9, 19] was 30 and the “Plant response rating, Foxtail, Giant” value [9, 20] was 90.
